Measurements: PMC9176655, “Nebulized fusion inhibitory peptide protects cynomolgus macaques from measles virus infection” (Research Square, 2022)

Assays:
[1] = cynomolgus monkey, in vivo
Method: Following European recommendations, 2 five-year-old healthy female cynomolgus macaques, 3–4 kg, were housed under conventional conditions in the animal facility. […] Animals were acclimatized to laboratory conditions and trained to breathe an aerosol with a facemask spontaneously. Aerosol generated from 3 ml of 0.9% NaCl mixed with 74 MBq of DTPA radiolabeled with technetium 99m (^99mTc-DTPA) was administered through a facemask connected to the prototype mesh nebulizers, as used in MeV infection experiments (Fig. 2a). Deposition of aerosol was extrapolated based on the ^99mTc-DTPA signal measured at the end of the nebulization using a gamma camera (Orbiter 75 Ecam, Siemens healthcare, Erlangen, Germany)[68]. The nebulizer charge was measured by counting the radioactivity in the syringe (that contained ^99mTc-DTPA) before and after loading the nebulizers. Immediately after aerosol delivery, the animals were imaged using the gamma camera. The post-anterior static scintigraphy acquisition was performed for 120s. The amount of ^99mTc-DTPA deposited into airways and stomach and remaining in the nebulizer was determined from the digitalized images taking into account the tissue attenuation coefficients, previously determined by perfusion scintigraphy (intravenous injection of ^99mTc-macroagregates of albumin). […]

[2] = Solubility of peptide for nebulization; format: physicochemical; details: dissolved in filtered Milli-Q water to 4 mg/ml, pH adjusted to 7, HEPES buffer
[3] = test system: MeV; experiment: Plaque reduction assay on Vero-hSLAM cells; details: prototype mesh nebulizer
[4] = test system: MeV IC323-eGFP; experiment: Serial viral passaging in presence of peptide, sequencing for escape variants; details: 1μM peptide added after infection, 8 serial passages on Vero SLAM cells, 100 PFU per passage, sequencing of viral RNA
[5] = Laser diffraction and nebulizer performance of aerosol from prototype mesh nebulizer; format: physicochemical; details: 3 ml of 4 mg/ml, mean + SD of four devices
Method: The aerodynamic performances of the aerosols generated by the prototype mesh nebulizer were determined by laser diffraction using a Spraytec™ instrument (Malvern Instruments Ltd., Malvern, UK) and the Spraytec inhalation cell (Malvern Instruments Ltd., Malvern, UK) connected to an aspiration carried out by a vacuum pump set to 30–50L/min [69]. The prototype mesh nebulizers (n=4) were loaded with 3 ml of either NaCl 0.9% or the HCR4 peptide (4 mg/ml, dissolved as described above) and then connected to the inhalation cell. Nebulization duration was notified at the end of the complete aerosolization of the loaded 3 ml. Diffraction data and volume distribution were automatically registered by the Spraytec software.
The output of nebulizer was determined by the difference between the weight of the nebulizer before and after nebulization and was expressed in percentage of the loaded volume. The output rate of each nebulizer (in ml/min) was then determined as the ratio between the output and the nebulization duration. At least, the residual volume corresponding to the volume of liquid remaining in the reservoir at the end of the nebulization was also determined by weighting the nebulizer before loading it and after nebulization.
25 Table S1. […]
28 1 VMD for Volume Median Diameter, presents the mean size of generated aerosols, measured by […]

[6] = test system: MeV; details: intranasal administration, cited from earlier work
Excerpt: MeV uses several receptors to infect target cells. […] Infection is initiat ...

[7] = test system: MeV; details: cell culture and organotypic brain cultures; cited from earlier work
[8] = test system: MeV IC323-eGFP; experiment: Nebulized peptide in MeV-infected cynomolgus macaques; details: absence of fluorescent rash, PBMC infection, viremia, viral shedding, MeV-specific immune response
Excerpt: To assess antiviral efficacy of nebulized HRC4 peptide in NHPs, groups of 3 animals were infected with 10^4 PFU MeV IC323-eGFP by intra-tracheal inoculation, and either mock-treated with nebulized saline solution (C1, C2, and C3) or treated with nebulized HRC4 peptide (P1, P2, and P3) twenty-four and six hours before infection and twenty-four hours after infection (Fig. 6a). The NHPs were housed in cages accommodating two animals per cage for ethical reasons, so that one cage contained one peptide-treated and one saline-nebulized macaque.
(a) Experimental design: cynomolgus monkeys (3 animals/group) were either nebulized with 3 ml of NaCl 0.9% (control group, C) or with 3 ml HRC4 peptide 4 mg/ml (experimental group, P), 24 h and 6 h before and 24 h after intra-tracheal infection with 10^4 PFU MeV IC323 eGFP. Blood samples were taken every 3 days for the first 16 days and fluorescence of the skin and mucosa tested at that time points. (b) Macroscopic manifestation of MeV infection, typical fluorescent rash observed on tongue, skin (back and chin) and palate (marked with white arrows), monitored under anesthesia using a blue light with orange filter. […] (d) Analysis of viremia by quantification of the percentage of GFP^+ peripheral blood mononuclear cells (PBMC) in the blood by flow cytometry and MeV-specific RNA in PBMCs and in throat swabs by RT-qPCR, during the course of infection. […]

SMILES	Deposition in macaque, Lungs [1]	Solubility [2]	Antiviral activity after versus before nebulization [3]	Mutations in MeV F after 8th passage [4]	VMD ([5]; laser diffraction (Spraytec)) [μm]	< 5µm ([5]; percentage of particles smaller than 5 µm)	Survival of mice ([6]; humanized transgenic mouse models of lethal measles disease)	Viral titer in cotton rat lungs [6]	Inhibition of the fusion process [7]	Development of MeV infection [8]
O=C([O-])CN(CCN(CC(=O)[O-])CC(=O)[O-])CCN(CC(=O)[O-])CC(=O)[O-].[99Tc+4] [99mTC-DTPA, DTPA radiolabeled with technetium 99m]	11.4 +/- 3.1%									
CC[C@H](C)[C@H](NC(=O)[C@H](C)NC(=O)[C@H](CC(N)=O)NC(=O)CNC(=O)[C@H](CC(C)C)NC(=O)[C@H](CC(N)=O)NC(=O)[C@@H](NC(=O)CNC(=O)[C@@H](NC(=O)[C@H](CC(=O)O)NC(=O)[C@H](CC(C)C)NC(=O)[C@H](CCCNC(=N)N)NC(=O)[C@H](CCC(=O)O)NC(=O)[C@H](CC(C)C)NC(=O)[C@H](CO)NC(=O)[C@@H](NC(=O)[C@@H]1CCCN1C(=O)[C@@H]1CCCN1)[C@@H](C)CC)C(C)C)[C@@H](C)O)C(=O)N[C@@H](C)C(=O)N[C@@H](CCCCN)C(=O)N[C@@H](CC(C)C)C(=O)N[C@@H](CCC(=O)O)C(=O)N[C@@H](CC(=O)O)C(=O)N[C@@H](C)C(=O)N[C@@H](CCCCN)C(=O)N[C@@H](CCC(=O)O)C(=O)N[C@@H](CC(C)C)C(=O)N[C@@H](CC(C)C)C(=O)N[C@@H](CCC(=O)O)C(=O)N[C@@H](CO)C(=O)N[C@@H](CO)C(=O)N[C@@H](CC(=O)O)C(=O)N[C@@H](CCC(N)=O)C(=O)N[C@H](C(=O)N[C@@H](CC(C)C)C(=O)N[C@@H](CCCNC(=N)N)C(=O)NCC(=O)N[C@@H](CO)C(=O)NCC(=O)N[C@@H](CO)C(=O)NCC(=O)N[C@@H](CSC1CC(=O)N(CCCC(=O)NCCOCCOCCOCCOCCC(=O)NCCN(CCNC(=O)CCOCCOCCOCCOCCNC(=O)CCCN2C(=O)CC(SC[C@H](NC(=O)CNC(=O)[C@H](CO)NC(=O)CNC(=O)[C@H](CO)NC(=O)CNC(=O)[C@H](CCCNC(=N)N)NC(=O)[C@H](CC(C)C)NC(=O)[C@@H](NC(=O)[C@H](CCC(N)=O)NC(=O)[C@H](CC(=O)O)NC(=O)[C@H](CO)NC(=O)[C@H](CO)NC(=O)[C@H](CCC(=O)O)NC(=O)[C@H](CC(C)C)NC(=O)[C@H](CC(C)C)NC(=O)[C@H](CCC(=O)O)NC(=O)[C@H](CCCCN)NC(=O)[C@H](C)NC(=O)[C@H](CC(=O)O)NC(=O)[C@H](CCC(=O)O)NC(=O)[C@H](CC(C)C)NC(=O)[C@H](CCCCN)NC(=O)[C@H](C)NC(=O)[C@@H](NC(=O)[C@H](C)NC(=O)[C@H](CC(N)=O)NC(=O)CNC(=O)[C@H](CC(C)C)NC(=O)[C@H](CC(N)=O)NC(=O)[C@@H](NC(=O)CNC(=O)[C@@H](NC(=O)[C@H](CC(=O)O)NC(=O)[C@H](CC(C)C)NC(=O)[C@H](CCCNC(=N)N)NC(=O)[C@H](CCC(=O)O)NC(=O)[C@H](CC(C)C)NC(=O)[C@H](CO)NC(=O)[C@@H](NC(=O)[C@@H]3CCCN3C(=O)[C@@H]3CCCN3)[C@@H](C)CC)C(C)C)[C@@H](C)O)[C@@H](C)CC)[C@@H](C)CC)C(=O)O)C2=O)CCO[C@H]2CC[C@@]3(C)C(=CC[C@H]4[C@@H]5CC[C@H]([C@H](C)CCCC(C)C)[C@@]5(C)CC[C@@H]43)C2)C1=O)C(=O)O)[C@@H](C)CC (stereo partly shown) [HRC4]		soluble in water	did not cause any loss of activity	no mutations	4	Approximately 58%	significant increase in survival of mice	reduction of the viral titer in cotton rat lungs	inhibited the fusion process	abrogated the development of MeV infection in two out of three animals
